From US9023789B2, “Amylin analogs and pharmaceutical compositions thereof” (Novo Nordisk A/S, priority 2012, dated 2015)
Read-outs that look alike come from different tables or passages of the source. Numbered stars: 1 amine (or outer) side, 2 acyl side, 3 side chain; on linkers, the order of the positions; unused ones are H or OH. Bridge positions count the residues as written; N and C are the ends. Side chains are listed from the residue outwards. Peptide text beside a SMILES is read from it. * marks the point of attachment. C20 diacid = O=C(O)CCCCCCCCCCCCCCCCCCC(=O)*; γGlu = O=C(O)[C@H](CCC(=O)[*:2])N[*:1]; AEEA = NCCOCCOCC(=O)O

Experiments:
[1] = target: T1, human amylin 3(a) receptor (human calcitonin receptor + RAMP-3) in BHK570 cells (Homo sapiens, UniProt O60896+P30988); test: ASSAY (II)a functional assay, human amylin receptor (CRE luciferase); format: cell-based; settings: for EC50: human amylin receptor functional potency, assay (II), read-out: hAmylin-R funct. EC50
T1 construct: expressed in transfected cells
Procedure, shortened: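 BHK CRE-luc cells, calcitonin (a) receptor ± RAMP-3 (amylin 3(a)); overnight seeding, 37° C/5% CO2. 3 h ligand exposure, DMEM/10% FBS/10 mM Hepes pH 7.4. LucLite 30 min RT; luminescence (SPC).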

[2] = target: T2, human amylin receptor (membranes from Amylin 3(a)/CRE-luc cells) (Homo sapiens, UniProt O60896+P30988); test: ASSAY (V) binding to the human amylin receptor (SPA, 125I-rat amylin); settings: for IC50: Table 4, read-out: hAmylin-R bind IC50;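 on all read-outs here: competition binding of cell membranes (35 ng/µL) mixed with SPA beads in 384-well plates at 40 µL total volume, read by scintillation counting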
T2 construct: expressed in transfected cells
T2 sequence (P30988 25-474): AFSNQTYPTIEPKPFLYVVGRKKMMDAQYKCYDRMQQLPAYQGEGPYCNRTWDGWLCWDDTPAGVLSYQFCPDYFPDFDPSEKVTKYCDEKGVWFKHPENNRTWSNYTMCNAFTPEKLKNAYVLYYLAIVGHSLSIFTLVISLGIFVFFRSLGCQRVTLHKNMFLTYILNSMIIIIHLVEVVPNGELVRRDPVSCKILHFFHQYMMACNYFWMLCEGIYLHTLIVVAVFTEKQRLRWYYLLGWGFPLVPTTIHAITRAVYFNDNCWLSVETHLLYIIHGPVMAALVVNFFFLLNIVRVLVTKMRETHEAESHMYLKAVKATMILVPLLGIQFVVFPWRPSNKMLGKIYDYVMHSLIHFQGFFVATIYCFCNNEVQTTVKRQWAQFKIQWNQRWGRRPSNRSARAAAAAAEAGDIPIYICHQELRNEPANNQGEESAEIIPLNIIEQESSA
T2 sequence (O60896 24-148 partner): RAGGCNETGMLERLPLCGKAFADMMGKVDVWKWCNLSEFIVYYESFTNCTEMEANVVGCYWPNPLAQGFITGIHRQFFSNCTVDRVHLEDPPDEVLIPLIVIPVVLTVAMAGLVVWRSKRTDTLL

rat calcitonin receptor = target: T3, rat calcitonin receptor (Rattus norvegicus, UniProt P32214); test: ASSAY (VIII) binding to the rat calcitonin receptor; settings: Table 7, read-out: rCTR bind IC50
T3 construct: expressed in transfected cells; host or cells: BHK tk'ts 13 (transient, FuGENE 6), membranes
T3 sequence (P32214 25-479 isoform P32214-2 limits assumed): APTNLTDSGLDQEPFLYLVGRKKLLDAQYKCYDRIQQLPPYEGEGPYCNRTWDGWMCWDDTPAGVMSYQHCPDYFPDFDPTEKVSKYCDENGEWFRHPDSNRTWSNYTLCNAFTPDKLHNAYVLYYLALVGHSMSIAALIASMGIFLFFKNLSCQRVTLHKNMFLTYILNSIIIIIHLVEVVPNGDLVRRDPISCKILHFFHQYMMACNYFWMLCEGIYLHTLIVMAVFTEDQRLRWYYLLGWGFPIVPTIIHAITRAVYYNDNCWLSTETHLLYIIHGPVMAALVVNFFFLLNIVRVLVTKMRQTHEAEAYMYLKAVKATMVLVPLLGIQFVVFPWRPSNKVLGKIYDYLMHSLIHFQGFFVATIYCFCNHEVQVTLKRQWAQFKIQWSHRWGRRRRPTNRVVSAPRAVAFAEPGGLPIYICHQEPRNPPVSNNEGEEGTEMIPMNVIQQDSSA
Procedure, shortened: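 Rat calcitonin receptor is expressed transiently in BHK tk′ts 13 cells cultured in DMEM with 10% FBS. Roughly two days (approximately 48 hours) post-transfection, cells are harvested for membrane preparation.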

[3] = target: T4, rat amylin receptor (rat calcitonin receptor + rat RAMP 3) (Rattus norvegicus, UniProt P32214+Q9JJ73); test: ASSAY (VI) binding to the rat amylin receptor; settings: for IC50: binding to rat amylin receptor, read-out: rAmylin-R bind IC50
T4 construct: expressed in transfected cells; host or cells: BHK tk'ts 13 (transient, FuGENE 6), membranes
T4 sequence (P32214 25-479 isoform P32214-2 limits assumed): T3 sequence (P32214 25-479 isoform P32214-2 limits assumed)
T4 sequence (Q9JJ73 23-147 partner): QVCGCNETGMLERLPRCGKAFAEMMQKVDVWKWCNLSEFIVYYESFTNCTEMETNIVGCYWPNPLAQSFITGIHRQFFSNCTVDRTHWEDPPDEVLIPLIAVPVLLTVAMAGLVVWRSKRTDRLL
Procedure, shortened: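 This assay measured binding to the rat amylin receptor. BHK tk′ts 13 cells were transiently transfected with the rat calcitonin receptor using FuGENE® 6 (Roche), following the manufacturer's recommendations. About 48 hours after transfection, the cells were harvested and membranes were prepared from them for the binding determination.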

[4] = ASSAY (IV) determination of solubility; format: physicochemical
Procedure, shortened: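 Dissolve polypeptide in water ([…] stock); combine 1:1 with each 100 mM buffer (glycylglycine pH 3.0/4.0/5.0; bistrispropane pH 6.0/6.5/7.0/7.5/8.0); hold 18 hours at room temperature; centrifuge; quantify polypeptide by UPLC.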

[5] = hCTR funct. EC50 divided by hAmylin-R funct. EC50
[6] = hCTR funct. EC50 over hAmylin-R funct. EC50
[7] = human functional selectivity: hCTR funct. EC50 / hAmylin-R funct. EC50
[8] = Table 5, selectivity, hCTR bind IC50 / hAmylin-R bind IC50
[9] = Table 5a, selectivity, hCTR bind IC50 / hAmylin-R bind IC50
[10] = Table 5b, selectivity, hCTR bind IC50 / hAmylin-R bind IC50
[11] = Table 7, human binding selectivity, included for comparison
[12] = Table 7a (preferred compounds), human binding selectivity, included for comparison
[13] = ratio of human calcitonin receptor binding IC50 to human amylin receptor binding IC50
[14] = Table 7, rat binding selectivity, rCTR IC50 / rAmylin-R IC50
[15] = Table 7a (preferred compounds), rat binding selectivity, rCTR IC50 / rAmylin-R IC50
[16] = ratio of rCTR bind IC50 to rAmylin-R bind IC50
[17] = bistrispropane buffer, pH 6.5, read-out: Solubility pH 6.5 Concentration
[18] = bistrispropane buffer, pH 7.5, read-out: Solubility pH 7.5 Concentration
[19] = bistrispropane buffer, pH 6.0, read-out: Solubility pH 6.0 Concentration
[20] = bistrispropane buffer, pH 7.0, read-out: Solubility pH 7.0 Concentration
[21] = bistrispropane buffer, pH 8.0, read-out: Solubility pH 8.0 Concentration
[22] = glycylglycine buffer, pH 3.0, read-out: Solubility pH 3.0 Concentration
[23] = glycylglycine buffer, pH 4.0, read-out: Solubility pH 4.0 Concentration
[24] = glycylglycine buffer, pH 5.0, read-out: Solubility pH 5.0 Concentration

Ratio hCT/hAmylin funct. [1, 5]	Ratio hCT/hAmylin funct. [1, 6]	EC50 [1]	Ratio hCT/hAmylin funct. [1, 7]	IC50 [2]	Ratio hCT/hAmylin binding [2, 8]	Ratio hCT/hAmylin binding [2, 9]	Ratio hCT/hAmylin binding [2, 10]	Ratio hCT/hAmylin binding [2, 11]	Ratio hCT/hAmylin binding [2, 12]	Ratio hCT/hAmylin binding [2, 13]	IC50 (rat calcitonin receptor)	IC50 ([3]; Table 7)	Ratio rCT/rAmylin binding [3, 14]	Ratio rCT/rAmylin binding [3, 15]	Ratio rCT/rAmylin binding [3, 16]	solubility at 18 h [4, 17]	solubility at 18 h [4, 18]	solubility at 18 h [4, 19]	solubility at 18 h [4, 20]	Compound	also measured
29.9	29.9	0.212 nM	29.9	0.532 nM	47.5	47.5	47.5	47.5	47.5	47.5	152 nM	0.491 nM	309.2	309.2	309.2	≥ 200 µM	≥ 200 µM	≥ 200 µM	≥ 200 µM	CC[C@H](C)[C@H](NC(=O)[C@H](C)NC(=O)CNC(=O)[C@H](Cc1ccccc1)NC(=O)[C@H](CC(N)=O)NC(=O)[C@@H]1CCCN1C(=O)[C@H](CO)NC(=O)[C@H](CO)NC(=O)[C@H](Cc1c[nH]cn1)NC(=O)[C@H](CCCNC(=N)N)NC(=O)[C@H](CC(C)C)NC(=O)[C@H](Cc1ccccc1)NC(=O)[C@H](CC(N)=O)NC(=O)[C@H](C)NC(=O)[C@H](CC(C)C)NC(=O)[C@H](CCCNC(=N)N)NC(=O)[C@H](CCC(N)=O)NC(=O)[C@@H](NC(=O)[C@H](C)NC(=O)[C@@H]1CSSC[C@H](NC(=O)[C@@H](N)CCCCNC(=O)COCCOCCNC(=O)CC[C@H](NC(=O)CCCCCCCCCCCCCCCCCCC(=O)O)C(=O)O)C(=O)N[C@@H](CC(N)=O)C(=O)N[C@@H]([C@@H](C)O)C(=O)N[C@@H](C)C(=O)N[C@@H]([C@@H](C)O)C(=O)N1)[C@@H](C)O)C(=O)N1CCC[C@H]1C(=O)N[C@@H](CO)C(=O)N[C@@H](CO)C(=O)N[C@H](C(=O)N[C@@H](CC(N)=O)C(=O)N[C@H](C(=O)NCC(=O)N[C@@H](CO)C(=O)N[C@@H](CCC(=O)O)C(=O)N[C@H](C(=O)N[C@@H](Cc1ccc(O)cc1)C(N)=O)[C@@H](C)O)C(C)C)[C@@H](C)O [Example 26] (H-K([AEEA-γGlu-C20 diacid])CNTATCATQRLANFLRHSSPNFGAIPSSTNVGSETY-NH2; disulfide 2-7; N-terminus assumed)	Ratio hCT/hAmylin binding ([2]; Table 5c, selectivity, hCTR bind IC50 / hAmylin-R bind IC50): 47.5; solubility at 18 h [4, 21]: ≥ 200 µM; solubility at 18 h [4, 22]: ≥ 200 µM; solubility at 18 h [4, 23]: ≥ 200 µM; solubility at 18 h [4, 24]: ≥ 200 µM
10.5	10.5	0.225 nM	10.5	0.121 nM	17.6	17.6	17.6	17.6	17.6	17.6	16.1 nM	0.182 nM	88.5	88.5	88.5	≥ 200 µM	≥ 200 µM	≥ 200 µM	≥ 200 µM	CC[C@H](C)[C@H](NC(=O)[C@H](C)NC(=O)CNC(=O)[C@H](Cc1ccccc1)NC(=O)[C@H](CC(N)=O)NC(=O)[C@@H]1CCCN1C(=O)[C@H](CO)NC(=O)[C@H](CO)NC(=O)[C@H](Cc1c[nH]cn1)NC(=O)[C@H](CCCNC(=N)N)NC(=O)[C@H](CC(C)C)NC(=O)[C@H](Cc1ccccc1)NC(=O)[C@H](CCC(=O)O)NC(=O)[C@H](C)NC(=O)[C@H](CC(C)C)NC(=O)[C@H](CCCNC(=N)N)NC(=O)[C@H](CCC(N)=O)NC(=O)[C@@H](NC(=O)[C@H](C)NC(=O)[C@@H]1CSSC[C@H](NC(=O)[C@@H](N)CCCCNC(=O)CC[C@H](NC(=O)CC[C@H](NC(=O)CCCCCCCCCCCCCCCCCCC(=O)O)C(=O)O)C(=O)O)C(=O)N[C@@H](CC(N)=O)C(=O)N[C@@H]([C@@H](C)O)C(=O)N[C@@H](C)C(=O)N[C@@H]([C@@H](C)O)C(=O)N1)[C@@H](C)O)C(=O)N1CCC[C@H]1C(=O)N[C@@H](CO)C(=O)N[C@@H](CO)C(=O)N[C@H](C(=O)N[C@@H](CC(N)=O)C(=O)N[C@H](C(=O)NCC(=O)N1CCC[C@H]1C(=O)N[C@@H](CCC(=O)O)C(=O)N[C@H](C(=O)N[C@@H](Cc1ccc(O)cc1)C(N)=O)[C@@H](C)O)C(C)C)[C@@H](C)O [Example 106] (H-K([γGlu-γGlu-C20 diacid])CNTATCATQRLAEFLRHSSPNFGAIPSSTNVGPETY-NH2; disulfide 2-7; N-terminus assumed)	solubility at 18 h [4, 21]: ≥ 200 µM; solubility at 18 h [4, 22]: ≥ 200 µM; solubility at 18 h [4, 23]: ≥ 200 µM; solubility at 18 h [4, 24]: ≥ 200 µM
